For test [1], the target named is T1, TesA (Escherichia coli, UniProt P0ADA1).
T1 sequence (P0ADA1 27-208): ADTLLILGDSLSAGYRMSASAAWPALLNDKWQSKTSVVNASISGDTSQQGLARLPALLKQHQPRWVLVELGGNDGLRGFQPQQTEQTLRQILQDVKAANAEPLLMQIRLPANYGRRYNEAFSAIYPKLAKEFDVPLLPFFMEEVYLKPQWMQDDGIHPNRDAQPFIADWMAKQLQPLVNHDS
Briefly: ester hydrolysis by live cells expressing TesA, absorbance at […] nm. The test is classed as cell-based. On the set-up: for the cell assays expressed from a pET vector in E. coli delta-tesA (Keio) cells. To be noted: PBS; live E. coli delta-tesA cells; 2.5 mM substrate after mixing.

Test [2] deals with T2, Escherichia coli BW25113.
T2 construct: BW25113
Briefly: microbe, parasite or virus in culture. To be noted: read-out: Median MIC. On the set-up: antibiotic susceptibility testing of E. coli strains, MIC, median of replicates. The text has this: (§1) Supplementary file pbio.3003427.s003.docx: S3 Table Antibiotic susceptibility testing for TesA and YbbP knockout strains. (DOCX)

The target in test [3] is T3, YbbAP-TesA (Escherichia coli, UniProt P0ADA1).
T3 construct: co-expressed from pETDuet1-based plasmids in E. coli C43(DE3); His-tag on YbbA; complex in LMNG detergent; 2:1:1 YbbA:YbbP:TesA; Uncharacterized ABC transporter permease YbbP
T3 sequence (P0ADA1 27-208): T1 sequence (P0ADA1 27-208)
T3 sequence (P0A9T8 1-228 partner): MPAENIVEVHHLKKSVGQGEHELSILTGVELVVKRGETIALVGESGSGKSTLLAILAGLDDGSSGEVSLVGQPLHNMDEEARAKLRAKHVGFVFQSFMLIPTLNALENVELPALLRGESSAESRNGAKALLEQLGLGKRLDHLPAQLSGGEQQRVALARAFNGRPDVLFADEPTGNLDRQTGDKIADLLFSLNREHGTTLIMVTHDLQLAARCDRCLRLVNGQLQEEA
T3 sequence (P77504 1-804 partner): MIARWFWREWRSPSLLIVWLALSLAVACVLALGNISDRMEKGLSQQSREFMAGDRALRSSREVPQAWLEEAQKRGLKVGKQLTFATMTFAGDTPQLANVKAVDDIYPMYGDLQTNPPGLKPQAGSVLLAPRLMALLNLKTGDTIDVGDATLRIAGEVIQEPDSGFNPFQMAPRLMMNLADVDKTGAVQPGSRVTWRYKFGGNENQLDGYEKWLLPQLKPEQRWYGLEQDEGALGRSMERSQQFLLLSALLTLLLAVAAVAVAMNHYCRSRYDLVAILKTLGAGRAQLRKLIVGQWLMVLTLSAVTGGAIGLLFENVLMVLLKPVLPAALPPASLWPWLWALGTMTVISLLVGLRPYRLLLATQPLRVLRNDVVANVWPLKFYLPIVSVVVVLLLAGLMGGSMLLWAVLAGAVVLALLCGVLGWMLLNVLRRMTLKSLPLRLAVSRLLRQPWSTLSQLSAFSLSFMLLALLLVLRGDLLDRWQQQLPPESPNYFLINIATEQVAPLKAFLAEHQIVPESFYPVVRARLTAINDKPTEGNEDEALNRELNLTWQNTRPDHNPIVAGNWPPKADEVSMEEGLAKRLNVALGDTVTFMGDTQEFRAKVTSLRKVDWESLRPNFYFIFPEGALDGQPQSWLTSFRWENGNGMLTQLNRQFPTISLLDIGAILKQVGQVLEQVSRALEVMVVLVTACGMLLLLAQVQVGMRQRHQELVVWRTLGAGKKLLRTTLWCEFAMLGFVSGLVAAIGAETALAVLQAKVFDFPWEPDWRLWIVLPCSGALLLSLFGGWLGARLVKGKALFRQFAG
Description: Michaelis-Menten, absorbance at […] nm. To be noted: PBS with 0.01% LMNG, 21 °C. It counts as biochemical.

Test [4] concerns the target T1, TesA. Briefly: absorbance assay. It counts as biochemical. More on the design: isolated TesA; for the cell assays expressed from a pET vector in E. coli delta-tesA (Keio) cells. As to conditions: isolated TesA.
Test [5] addresses T4, PaTesA (Pseudomonas aeruginosa, UniProt Q9HZY8).
T4 construct: gene tesA; purified, N-terminal tag
Description: absorbance at […] nm. To be noted: purified tagged enzyme. The test is classed as biochemical.

Test [6] deals with T5, Escherichia coli C43(DE3).
T5 construct: C43(DE3) carrying empty pET28 vector
Briefly: microbe, parasite or virus in culture. As to conditions: D=+IPTG +Kan, median MIC, empty pET28, IPTG and kanamycin present. More on the design: antibiotic susceptibility testing of E. coli strains, MIC, median of replicates.
Excerpt: as §1

Test [7] deals with T6, YbbP (E. coli, UniProt P77504 1-804).
T6 construct: YbbP, transmembrane component (10 transmembrane helices, two periplasmic domains) of the YbbAP Type VII ABC transporter, Escherichia coli; source: size exclusion chromatography for structure determination), in 0.01% LMNG
T6 sequence: T3 sequence (P77504 1-804 partner)
Description: cryo-EM structure; YbbAP-TesA(Ser36Ala) complex with AMP-PNP, co-expressed and co-purified (Ni-affinity, SEC), 0.01% LMNG; 4.6 Å. As to conditions: both partners purified.

Changes are numbered by the printed parent chain. In brackets after ≈: the same amount, converted by molar mass. A value given as a limit tells only on which side of the number the result lay.

T4 sequence (Q9HZY8 22-201): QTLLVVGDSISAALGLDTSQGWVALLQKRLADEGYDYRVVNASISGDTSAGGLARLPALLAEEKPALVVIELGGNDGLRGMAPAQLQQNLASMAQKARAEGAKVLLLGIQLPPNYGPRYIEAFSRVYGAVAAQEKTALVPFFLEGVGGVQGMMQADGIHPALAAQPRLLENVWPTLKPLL

Turning to `CCCC(=O)Oc1ccc([N+](=O)[O-])cc1` [p-nitrophenyl butyrate], in test [1], the relative rate result is recorded as “expressing either TesA (or YbbAP-TesA) from a plasmid show robust hydrolytic activity”. Take `CC(=O)OCC1=C(C(=O)O)N2C(=O)[C@@H](NC(=O)Cc3cccs3)[C@H]2SC1` [Cephalothin]: the MIC in test [2] was found to be 12 µg/mL (≈ 30.3 µM). What is called Km is the substrate concentration at which the rate is half of its maximum. `O=C(Cc1cccs1)N[C@@H]1C(=O)N2C(C(=O)O)=C(/C=C/c3ccc([N+](=O)[O-])cc3[N+](=O)[O-])CS[C@H]12` [nitrocefin]: the Km in test [3] is less than 0.01 µM. Besides, the absorbance assay result in test [4] is listed as “YbbAP-TesA (and isolated TesA) can hydrolyze nitrocefin”. The “absorbance at 488 nm” value in test [5] is on record as “We also separately confirmed that the P. aeruginosa TesA can hydrolyze nitrocefin”.

For the molecule `CC1(C)S[C@@H]2[C@H](NC(=O)[C@H](N)c3ccccc3)C(=O)N2[C@H]1C(=O)O` [Ampicillin], in test [6], the MIC was found to be 8 µg/mL (≈ 22.9 µM). For `CC1(C)S[C@@H]2[C@H](NC(=O)Cc3ccccc3)C(=O)N2[C@H]1C(=O)O` [Penicillin G], in test [2], the MIC amounted to 32 µg/mL (≈ 95.7 µM).

B1: YbbA (natural protein, E. coli)
chain: T3 sequence (P0A9T8 1-228 partner)
notes: also called ABC domain; source: size exclusion chromatography for structure determination), in 0.01% LMNG
One may read the stoichiometry N as a count of units in the complex or per binding partner. As to B1, the “stoichiometry N” value in test [7] worked out at 2.

B2: TesA Ser36Ala (enzyme, E. coli, UniProt P0ADA1 27-208, looked up)
chain: T1 sequence (P0ADA1 27-208) with S10A
notes: TesA, periplasmic multifunctional esterase/thioesterase/lysophospholipase, Escherichia coli, with the catalytic site mutation Ser36Ala; printed residue numbers fit the precursor with its signal peptide; also called TesA catalytic site mutation (Ser36Ala); source: size exclusion chromatography for structure determination), in 0.01% LMNG
In the case of B2, in test [7], the “stoichiometry N” value came out at 1.

Values taken from paper PMC12646458, “Structural characterization of the YbbAP-TesA ABC transporter identifies it as a lipid hydrolase complex that extracts hydrophobic compounds from the bacterial inner membrane” (PLOS Biology, 2025).
